Laboratory results: patent US8466089B2, “Pyrazole compounds, process for their production and herbicides containing them” (Ishihara Sangyo Kaisha, Ltd., priority 2008, dated 2013)

Legend:
Format in all cases: in vivo
[1] = test system: rice (Oryza sativa L.) (var.: Nihonbare); experiment: Test Example 3, paddy field pot, transplanted rice; conditions: applied 4th day after transplantation, 20th to 23rd day after application, read-out: Growth inhibition rate (%) Rice
Source text: (§1) Paddy field soil was put into a 1/1,000,000 hectare pot, and seeds of barnyardgrass (Echinochloa oryzicola vasing.) and Japanese bulrush (Scirpus juncoides) were sown and lightly covered with soil. Then, pot was left to stand in a greenhouse in a state irrigated to a water depth of from 0.5 to 1 cm, and next day or two days later, tubers of Japanese ribbon waparo (Sagittaria pygmaea) were planted. Then, the irrigated water depth was maintained to be from 3 to 4 cm, and when barnyardgrass and Japanese bulrush reached 0.5 leaf stage, and Japanese ribbon waparo reached primary leaf stage, a water diluted solution of a wettable powder or an emulsifiable concentrate of the compound of the present invention prepared in accordance with a conventional preparation method, was uniformly dropwise applied by a pipette so that the amount of active ingredients would be a prescribed amount. Further, paddy field soil was put into a 1/1,000,000 pot, followed by soil puddling to an irrigated water depth of from 3 to 4 cm. Next day, rice (Oryza sativa L.) (var.: Nihonbare) of two leaf stage was transplanted in a transplantation depth of 3 cm. On the 4th day after transplantation, the compound of the present invention was applied in the same manner as described above.
(§2) On the 13th to 17th day after application, the state of growth of barnyardgrass, Japanese bulrush and Japanese ribbon waparo was visually observed, and on the 20th to 23rd day after application, the state of growth of rice was visually observed, and the herbicidal effect was evaluated by a growth inhibition rate (%) of 0 (equivalent to the non-treated area) to 100% (complete kill).

[2] = test system: barnyardgrass (Echinochloa oryzicola vasing.); experiment: Test Example 3, paddy field pot, application to irrigated water; conditions: applied at 0.5 leaf stage, 13th to 17th day after application, read-out: Growth inhibition rate (%) barnyard grass
Source text: as §1, §2

[3] = test system: Japanese ribbon waparo (Sagittaria pygmaea); experiment: as above; conditions: applied at primary leaf stage, 13th to 17th day after application, read-out: Growth inhibition rate (%) Japanese ribbon waparo
Source text: as §1, §2

[4] = test system: Japanese bulrush (Scirpus juncoides); experiment: as above; conditions: Schoenoplectiella juncoides, applied at 0.5 leaf stage, 13th to 17th day after application, read-out: Growth inhibition rate (%) Japanese bulrush
Source text: as §1, §2

[5] = test system: barnyardgrass (Echinochloa crus-galli L.); experiment: Test Example 1, foliar treatment in upland pots; conditions: 20th to 22nd day after application, visual, read-out: Growth inhibition rate (%) Barnyardgrass
Source text: (§3) Upland field soil was put into a 1/170,000 hectare pot, and seeds of various plants were sown. When the respective plants reached predetermined leaf stage ((1) barnyardgrass (Echinochloa crus-galli L.): 1.2 to 3.0 leaf stage, (2) crabgrass (Digitaria sanguinalis L.): 1.0 to 3.0 leaf stage, (3) green foxtail (Setaria viridis L.): 1.5 to 3.0 leaf stage, (4) redroot pigweed (Amaranthus retroflexus L.): cotyledon stage to 1.5 leaf stage, (5) prickly sida (Sida spinosa L.): cotyledon stage to 2.0 leaf stage, (6) velvetleaf (Abutilon theophrasti MEDIC.): cotyledon stage to 1.3 leaf stage, (7) rice (Oryza sativa L.): 1.2 to 2.5 leaf stage, (8) corn (Zea mays L.): 2.0 to 3.3 leaf stage, (9) soybean (Glycine max Merr.): primary leaf stage to 0.3 leaf stage) and wheat (Triticum spp.): 2.0 to 3.0 leaf stage, wettable powders or emulsifiable concentrates of the compounds of the present invention prepared in accordance with a conventional preparation method, were weighed so that the active ingredients became the prescribed amounts, and diluted with water in an amount corresponding to 500 liter per 1 hectare (containing 0.1 vol % of an agricultural spreader (“KUSARINOH”, manufactured by NIHON NOHYAKU CO., LTD.)). The spray solutions thus prepared were applied for foliar treatment by a small sprayer.
(§4) On the 20th to 22nd day after application, the state of growth of the respective plants was visually observed, and the herbicidal effect was evaluated by a growth inhibition rate (%) of 0 (equivalent to the non-treated area) to 100% (complete kill).

[6] = test system: corn (Zea mays L.); experiment: Test Example 1, foliar treatment in upland pots; conditions: 20th to 22nd day after application, visual, read-out: Growth inhibition rate (%) Corn
Source text: as §3, §4

[7] = test system: green foxtail (Setaria viridis L.); experiment: Test Example 1, foliar treatment in upland pots; conditions: 20th to 22nd day after application, visual, read-out: Growth inhibition rate (%) Green foxtail
Source text: as §3, §4

[8] = test system: wheat (Triticum spp.); experiment: Test Example 1, foliar treatment in upland pots; conditions: 20th to 22nd day after application, visual, read-out: Growth inhibition rate (%) Wheat
Source text: as §3, §4

[9] = test system: velvetleaf (Abutilon theophrasti MEDIC.); experiment: Test Example 1, foliar treatment in upland pots; conditions: 20th to 22nd day after application, visual, read-out: Growth inhibition rate (%) Velvetleaf
Source text: as §3, §4

[10] = test system: soybean (Glycine max Merr.); experiment: Test Example 1, foliar treatment in upland pots; conditions: 20th to 22nd day after application, visual, read-out: Growth inhibition rate (%) Soybean
Source text: as §3, §4

[11] = test system: redroot pigweed (Amaranthus retroflexus L.); experiment: Test Example 1, foliar treatment in upland pots; conditions: 20th to 22nd day after application, visual, read-out: Growth inhibition rate (%) Redroot pigweed
Source text: as §3, §4

[12] = test system: crabgrass (Digitaria sanguinalis L.); experiment: Test Example 1, foliar treatment in upland pots; conditions: 20th to 22nd day after application, visual, read-out: Growth inhibition rate (%) Crabgrass
Source text: as §3, §4

[13] = test system: barnyardgrass (Echinochloa crus-galli L.); experiment: Test Example 2, soil application on the day after sowing; conditions: 21st to 22nd day after application, visual, read-out: Growth inhibition rate (%) Barnyardgrass
Source text: (§5) Upland field soil was put into a 1/170,000 hectare pot, and seeds of various plants (barnyardgrass (Echinochloa crus-galli L.), crabgrass (Digitaria sanquinalis L.), green foxtail (Setaria viridis L.), redroot pigweed (Amaranthus retroflexus L.), prickly sida (Sida spinosa L.), velvetleaf (Abutilon theophrasti MEDIC.), rice (Oryza sativa L.), corn (Zea mays L.), soybean (Glycine max Merr.)) and wheat (Triticum spp.) were sown. On the day after sowing, wettable powders or emulsifiable concentrates of the compounds of the present invention prepared in accordance with a conventional preparation method, were weighed so that the active ingredients became the prescribed amounts, and diluted with water in an amount corresponding to 500 liter per 1 hectare, followed by soil application with a small sprayer.
(§6) On the 21st to 22nd day after the application, the state of growth of the respective plants was visually observed, and the herbicidal effect was evaluated by a growth inhibition rate (%) of from 0 (equivalent to the non-treated area) to 100% (complete kill).

[14] = test system: corn (Zea mays L.); experiment: as above; conditions: 21st to 22nd day after application, visual, read-out: Growth inhibition rate (%) Corn
Source text: as §5, §6

[15] = test system: crabgrass (Digitaria sanquinalis L.); experiment: as above; conditions: 21st to 22nd day after application, visual, read-out: Growth inhibition rate (%) Crabgrass
Source text: as §5, §6

[16] = test system: green foxtail (Setaria viridis L.); experiment: as above; conditions: 21st to 22nd day after application, visual, read-out: Growth inhibition rate (%) Green foxtail
Source text: as §5, §6

[17] = test system: wheat (Triticum spp.); experiment: as above; conditions: 21st to 22nd day after application, visual, read-out: Growth inhibition rate (%) Wheat
Source text: as §5, §6

[18] = test system: velvetleaf (Abutilon theophrasti MEDIC.); experiment: as above; conditions: 21st to 22nd day after application, visual, read-out: Growth inhibition rate (%) Velvetleaf
Source text: as §5, §6

[19] = test system: soybean (Glycine max Merr.); experiment: as above; conditions: 21st to 22nd day after application, visual, read-out: Growth inhibition rate (%) Soybean
Source text: as §5, §6

[20] = test system: rice (Oryza sativa L.); experiment: as above; conditions: 21st to 22nd day after application, visual, read-out: Growth inhibition rate (%) Rice
Source text: as §5, §6

[21] = test system: prickly sida (Sida spinosa L.); experiment: as above; conditions: 21st to 22nd day after application, visual, read-out: Growth inhibition rate (%) Prickly sida
Source text: as §5, §6

[22] = test system: redroot pigweed (Amaranthus retroflexus L.); experiment: as above; conditions: 21st to 22nd day after application, visual, read-out: Growth inhibition rate (%) Redroot pigweed
Source text: as §5, §6

[23] = test system: rice (Oryza sativa L.); experiment: Test Example 1, foliar treatment in upland pots; conditions: 20th to 22nd day after application, visual, read-out: Growth inhibition rate (%) Rice
Source text: as §3, §4

## CCOCc1c(S(C)(=O)=O)ccc(C(=O)c2cnn(C)c2OC(C)OC(=O)OCC)c1C (centres unmarked) [Compound No. 1-4, 1-(4-(3-(Ethoxymethyl)-2-methyl-4-(methylsulfonyl)benzoyl)-1-methyl-1H-pyrazol-5-yloxy)ethyl ethyl carbonate]
[1]
  inhibition at 63 g/ha: 20%
[2]
  inhibition at 63 g/ha: 100%
[3]
  inhibition at 63 g/ha: 70%
[4]
  inhibition at 63 g/ha: 60%
[5]
  inhibition at 7 g/ha: 95%
[6]
  inhibition at 7 g/ha: 0%
[7]
  inhibition at 7 g/ha: 75%
[8]
  inhibition at 7 g/ha: 0%
[9]
  inhibition at 7 g/ha: 80%
[10]
  inhibition at 7 g/ha: 80%
[11]
  inhibition at 7 g/ha: 80%
[12]
  inhibition at 7 g/ha: 95%
[13]
  inhibition at 250 g/ha: 98%
[14]
  inhibition at 250 g/ha: 0%
[15]
  inhibition at 250 g/ha: 80%
[16]
  inhibition at 250 g/ha: 80%
[17]
  inhibition at 250 g/ha: 0%
[18]
  inhibition at 250 g/ha: 100%
[19]
  inhibition at 250 g/ha: 40%
[20]
  inhibition at 250 g/ha: 60%
[21]
  inhibition at 250 g/ha: 90%
[22]
  inhibition at 250 g/ha: 98%

## CCOCc1c(S(C)(=O)=O)ccc(C(=O)c2cnn(C)c2OC(C)OC(=O)OC)c1C (centres unmarked) [Compound No. 1-1, 1-(4-(3-(Ethoxymethyl)-2-methyl-4-(methylsulfonyl)benzoyl)-1-methyl-1H-pyrazol-5-yloxy)ethyl methyl carbonate]
[1]
  inhibition at 63 g/ha: 10%
[2]
  inhibition at 63 g/ha: 100%
[3]
  inhibition at 63 g/ha: 90%
[4]
  inhibition at 63 g/ha: 70%
[5]
  inhibition at 7 g/ha: 95%
[7]
  inhibition at 7 g/ha: 60%
[8]
  inhibition at 7 g/ha: 0%
[9]
  inhibition at 7 g/ha: 50%
[10]
  inhibition at 7 g/ha: 70%
[23]
  inhibition at 7 g/ha: 20%
[11]
  inhibition at 7 g/ha: 60%
[12]
  inhibition at 7 g/ha: 90%
[13]
  inhibition at 250 g/ha: 100%
[14]
  inhibition at 250 g/ha: 10%
[15]
  inhibition at 250 g/ha: 100%
[16]
  inhibition at 250 g/ha: 98%
[17]
  inhibition at 250 g/ha: 20%
[18]
  inhibition at 250 g/ha: 98%
[19]
  inhibition at 250 g/ha: 20%
[20]
  inhibition at 250 g/ha: 95%
[21]
  inhibition at 250 g/ha: 90%
[22]
  inhibition at 250 g/ha: 90%
